The results in this text go back to PMC9061999, “Application of the Adverse Outcome Pathway Concept to In Vitro Nephrotoxicity Assessment: Kidney Injury due to Receptor-Mediated Endocytosis and Lysosomal Overload as a Case Study” (Frontiers in Toxicology, 2022).

Counter-ions that a name gives are not always drawn. Like-named read-outs stand apart in the source and are kept apart here.

In series [1] the test system is RPTEC/TERT1 cells. The format is cell-based, human. The procedure:
For high content imaging, NRK-52E and RPTEC/TERT1 cells were cultivated in µ-clear half well area microtiter plates (Greiner) according to the protocol described for the cytotoxicity assay with slight modification. Briefly, NRK-52E cells were seeded at 5,000 cells in 100 µL growth medium per well and were incubated under standard growth conditions for 48 h prior to treatment. RPTEC/TERT1 cells were seeded at 15,000 cells in 100 µL growth medium per well and incubated under standard growth conditions for 7–8 days, until cells reached confluence and started to differentiate. This was indicated by the formation of three-dimensional structures referred to as domes which were identified by regular microscopic inspection of the plates. Only differentiated cell cultures with detectable domes were assayed. Cells of both cell lines were treated with serially diluted Polymyxin B sulfate (concentration range 7.8 to 2,000 µM) for 1, 2, 4, 6, or up to 24 h. The assay was carried out on three biological replicates defined as three different non-consecutive passages of the cell culture. Each biological replicate at each treatment concentration was assayed in triplicate wells per plate.
Following treatment, cells were stained with two different combinations of fluorescent dyes: NRK-52E cells with 50 pg/μL LysoView™ 633 (Biotium) and 1 µM SYTO 16 (Thermo Scientific), respectively, for lysosomes and nuclei; RPTEC/TERT1 cells with 10 nM LysoTracker™ Red (Thermo Scientific) and 10 ng/μL Hoechst 33342 (Merck-Sigma Aldrich), respectively, for lysosomes and nuclei. For each cell line a staining solution was obtained by mixing the lysosomes and nuclei dyes in cell culture medium at the concentrations indicated above. The cells were stained by replenishing the medium for 100 µL of staining solution per well followed by incubation at 37°C and 5% CO2 for 30 min before imaging.
Images were acquired with a fully automated fluorescence confocal Opera™ QEHS system (PerkinElmer, United Kingdom) using a ×40 air UPlanApo objective (Olympus) with 0.85 numerical aperture. NRK-52E cells stained with the dyes SYTO 16 and LysoView™633 were imaged with the laser lines 488 and 635 nm, using a 488/561/635 nm primary dichroic mirror, a 510 nm long pass (LP) detection dichroic mirror, a 540/75 nm band pass (BP) emission filter for SYTO 16 and a 690/50 nm BP emission filter for LysoView™ 633. RPTEC/TERT1 cells stained with the dyes Hoechst 33342 and LysoTracker™Red were imaged with the laser lines 405 and 561 nm, using a 405/561/635 nm primary dichroic mirror, a 580 nm LP detection dichroic mirror, a 450/50 nm BP emission filter for Hoechst 33342 and a 600/40 nm BP emission filter for LysoTracker™Red. To prevent cross talk of the fluorescent signals, each dye was imaged consecutively using the combination of lasers and filters described above. The settings for laser power, exposure time and focal height were kept constant for each cell line across all the experiments. For NRK-52E cells images were acquired at 25 randomly distributed positions in a well at a single focal plane whereas for RPTEC/TERT1 cells due to the development of dome structures images were acquired at 9 random positions at three focal planes each 1 μm apart.
The images were analyzed by custom-made image analysis scripts either with the imaging analysis software Acapella (version 2.8 PerkinElmer) or Columbus (version 2.4.0 PerkinElmer). The scripts included modules for the identification and counting of the cell nuclei to extrapolate the number of cells per well, for definition of a cytoplasm surrounding the nucleus, for identification and counting of the lysosome vesicles within the cytoplasm. Additional cellular parameters included the nuclei size, intensity, the cell size (cell area), the lysosome size (lysosome area), intensity and the number of lysosomes normalized by the cell area to compensate for difference in size of the cells.

In series [2] the test system is RPTEC/TERT1 and NRK-52E cells. Kind of series: In vitro key event assays (LAMP-1/2, cathepsin D, cell viability) compared across both cell models. It counts as cell-based, human and rat. Particulars: for Effect on cell viability / cytotoxicity (KE3): CellTiter-Glo. As to the method:
Cells were plated into 96-well tissue culture plates (10,000 cells per well) and were allowed to grow for 48 h (NRK-52E) respectively 10 d (RPTEC/TERT1) prior to 24 h treatment with model stressors. Stock solution for each compound (2000 µM) was prepared in growth medium and serial dilutions (1:1) were made before each experiment. At the end of the 24 h treatment, cell viability was measured using the CellTiter-Glo® assay (Promega). CellTiter-Glo® reagents and buffer were mixed under light-protected conditions and 100 µL CellTiter-Glo® solution was added directly to each well followed by 2 min incubation on an orbital shaker and 10 min incubation at room temperature in the dark to stabilize the luminescence signal. The suspension was mixed via pipetting and 50 µL were transferred into white 96-well plates (PerkinElmer Inc.). The luminescence signal was measured on a multiplate reader (Mithras LB 940; Berthold). Each assay was performed in three independent experiments carried out in triplicates.
For immunocytochemistry experiments, cells were seeded into 8-well chamber slides (Ibidi) at a density of 140 cells per µL in 300 µL growth medium and were allowed to grow for 48 h (NRK-52E) or 10 d (RPTEC/TERT1) respectively. For treatment, stock solutions (1,000 µM) of compounds dissolved in growth medium were freshly prepared and serial dilutions were made before exposure of cells for 24 h. After treatment, cells were washed twice with 150 µL PBS and fixed with 150 µL 4% paraformaldehyde in 1 x PBS for 10 min at room temperature. After fixation, cells were washed 10 min with 150 µL PBS on an orbital shaker followed by permeabilization with 150 µL 0.2% Triton X-100 in 1 x PBS for 5 min at room temperature on an orbital shaker. The permeabilized cells were washed twice with 1 x PBS (150 µL) for 10 min at room temperature on an orbital shaker and then incubated with 150 µL 5% BSA dissolved in 1 x PBS for 1 h at room temperature to block unspecific binding sites. After blocking, 100 µL primary antibody diluted 1:100 in 1% BSA in 1 x PBS were directly pipetted onto the cells and incubated overnight at 4°C. The following antibodies were employed for NRK-52E cells: Anti-LAMP-1 monoclonal IgG1 kappa mouse antibody (Santa Cruz; sc-20011), anti-Cathepsin D mouse monoclonal IgG2 kappa antibody (Santa Cruz; sc-377124); for RPTEC/TERT1 cells: Anti-LAMP-2 monoclonal mouse antibody (Santa Cruz; sc-18822), anti-Cathepsin D mouse monoclonal IgG2b kappa (Novus Biologicals; NBP1-04278); for both cell lines anti-megalin mouse monoclonal IgG1 antibody (Santa Cruz, sc-515772).
After incubation with primary antibody, cells were washed three times for 15 min with 0.2% Tween in 1 x PBS (150 µL) on an orbital shaker. Cells were incubated for 1 h at room temperature with 100 µL CFL 488-conjugated mouse IgG kappa binding protein (1:50) (m-IgGκ BP-CFL 488; Santa Cruz, sc-516176). After incubation the cells were washed three times for 15 min with 0.2% Tween in 1 x PBS on an orbital shaker and once with 150 µL sterile water. Phalloidin-tetramethylrhodamine B isothiocyanate (TRITC) was used to stain the cytoskeleton and was diluted in 100% methanol to a stock concentration of 0.1 mg/ml and further diluted in 1 x PBS to a working concentration of 0.095 µM. After cells were washed once with 1 x PBS for 10 min at room temperature 150 µL phalloidin-TRITC working solution was added and the cells were incubated on an orbital shaker at room temperature for 60–90 min. After incubation, phalloidin-TRITC solution was aspirated, and the cells were washed once with 1 x PBS. Chamber slides were allowed to dry for 15 min at room temperature. To preserve fluorescence 50–100 µL DAPI mounting medium (Vectashield®; Vectorlab, Biozol) was added to the cells and chamber slides were stored at 4°C in the dark until image acquisition. […]

[3] abbreviates: RPTEC/TERT1 and NRK-52E, 24 h treatment.
[4] abbreviates: RPTEC/TERT1, 24 h, 7.8 to 2000 µM (smaller range for CdCl2 and 4-aminophenol), triplicate experiments, Figure S1.

As for `Nc1ccc(O)cc1` [4-aminophenol], in series [1], the “Effect on lysosomal endpoints in high content screening” value (“Effect on lysosomal endpoints” below) is “minor changes”.

For `[Cl][Cd][Cl]` [CdCl2, cadmium chloride], in series [2] (24 h treatment, cell viability), the “Cytotoxicity compared between RPTEC/TERT1 and NRK-52E cells” value was “more toxic in NRK-52E cells”. Besides, in series [2] (RPTEC/TERT1 and NRK-52E, 24 h, immunofluorescence image analysis), the “Effect on LAMP-1/2 expression (KE1)” value is listed as “only minor effects on LAMP1/2 expression”. Besides, the “Effect on cell viability / cytotoxicity (KE3)” value in series [2] (setting [3]) is on record as “significant cytotoxicity”. In addition, in series [1] (setting [4]), the “Effect on lysosomal endpoints” value is on record as “most prominent effects on lysosomal endpoints”. Take `N[C@@H](CSC(Cl)=C(Cl)Cl)C(=O)O` [TCVC, S-(1,2,2-trichlorovinyl)-L-cysteine]: the “Effect on lysosomal endpoints” value in series [1] (setting [4]) is “minor changes”. Still for that read-out and setting: the same measure for `Nc1ccn(C[C@@H](CO)OCP(=O)(O)O)c(=O)n1` [cidofovir]: “minor changes”. For `CNC(C)C1CCC(N)C(OC2C(N)CC(N)C(OC3OCC(C)(O)C(NC)C3O)C2O)O1` (centres unmarked) [gentamicin], the “Effect on lysosomal endpoints” value in series [1] (setting [4]) was “most prominent effects on lysosomal endpoints”. Same read-out and setting: next, `CC(C)OC(=O)OCOP(=O)(CO[C@H](C)Cn1cnc2c(N)ncnc21)OCOC(=O)OC(C)C` [tenofovir disoproxil fumarate]: “minor changes”; `C[C@H](Cn1cnc2c(N)ncnc21)OCP(=O)(O)O` [tenofovir]: “minor changes”. As to `CN[C@H](CC(C)C)C(=O)N[C@H]1C(=O)N[C@@H](CC(N)=O)C(=O)N[C@H]2C(=O)N[C@H]3C(=O)N[C@H](C(=O)N[C@H](C(=O)O)c4cc(O)cc(O)c4-c4cc3ccc4O)[C@H](O)c3ccc(c(Cl)c3)Oc3cc2cc(c3O[C@@H]2O[C@H](CO)[C@@H](O)[C@H](O)[C@H]2O[C@H]2C[C@](C)(N)[C@H](O)[C@H](C)O2)Oc2ccc(cc2Cl)[C@H]1O` [vancomycin], in series [1], the “Effect on lysosomal endpoints” value is “most prominent effects on lysosomal endpoints”. Regarding Polymyxin B nonapeptide, the “Rank order of effects of the 3 polymyxin derivatives across all KEs” value in series [2] (RPTEC/TERT1 and NRK-52E, 24 h) was “least toxic”. The “Effect on cell viability / cytotoxicity (KE3)” value in series [2] (setting [3]) is recorded as “low”. In addition, in series [1] (setting [4]), the “Effect on lysosomal endpoints” value was “most prominent effects on lysosomal endpoints”.
